Measured values reported in ChEMBL document CHEMBL5223082, “Alkyl-Aryl-Vancomycins: Multimodal Glycopeptides with Weak Dependence on the Bacterial Metabolic State” (J Med Chem, 2021).
≈ marks a conversion by molar mass, not a printed value.

Columns and labels:
Staphylococcus aureus [1] = assay: Antibacterial activity against Vancomycin-resistant Staphylococcus aureus 1 assessed as inhibition of bacterial growth incubated for 18 to 24 hrs by CLSI microbroth dilution method; format: functional; details: time 18-24 hrs
Enterococcus [2] = assay: Antibacterial activity against Vancomycin-resistant Enterococci NR30909 assessed as inhibition of bacterial growth incubated for 18 to 24 hrs by CLSI microbroth dilution method; format: functional; details: time 18-24 hrs
Staphylococcus aureus [3] = assay: Antibacterial activity against Vancomycin-resistant Staphylococcus aureus 12 assessed as inhibition of bacterial growth incubated for 18 to 24 hrs by CLSI microbroth dilution method; format: functional; details: time 18-24 hrs
Enterococcus [4] = assay: Antibacterial activity against Vancomycin-resistant Enterococci ATCC 51559 assessed as inhibition of bacterial growth incubated for 18 to 24 hrs by CLSI microbroth dilution method; format: functional; details: time 18-24 hrs
Enterococcus [5] = assay: Antibacterial activity against Vancomycin-resistant Enterococci ATCC 51575 assessed as inhibition of bacterial growth incubated for 18 to 24 hrs by CLSI microbroth dilution method; format: functional; details: time 18-24 hrs
Enterococcus [6] = assay: Antibacterial activity against Vancomycin-resistant Enterococci NR30903 assessed as inhibition of bacterial growth incubated for 18 to 24 hrs by CLSI microbroth dilution method; format: functional; details: time 18-24 hrs
Staphylococcus aureus [7] = assay: Antibacterial activity against Vancomycin-resistant Staphylococcus aureus 4 assessed as inhibition of bacterial growth incubated for 18 to 24 hrs by CLSI microbroth dilution method; format: functional; details: time 18-24 hrs
Staphylococcus aureus [8] = assay: Antibacterial activity against Methicillin-resistant Staphylococcus aureus ATCC 33591 assessed as inhibition of bacterial growth incubated for 18 to 24 hrs by CLSI microbroth dilution method; format: functional; details: time 18-24 hrs
Enterococcus [9] = assay: Potency index, ratio of Vancomycin MIC to test compound MIC for antibacterial activity against Vancomycin-resistant Enterococci ATCC 51575; format: functional
Staphylococcus aureus [10] = assay: Potency index, ratio of Vancomycin MIC to test compound MIC for antibacterial activity against Vancomycin-resistant Staphylococcus aureus 4; format: functional
Staphylococcus aureus [11] = assay: Potency index, ratio of Vancomycin MIC to test compound MIC for antibacterial activity against Vancomycin-resistant Staphylococcus aureus 1; format: functional
[12] = Induction of hemolysis in human erythrocytes at 250 uM incubated for 1 hr by microtiter plater reader analysis; format: toxicity, cell-based, Erythrocyte; details: read-out: Activity
Enterococcus [13] = assay: Potency index, ratio of Vancomycin MIC to test compound MIC for antibacterial activity against Vancomycin-resistant Enterococci NR30903; format: functional, NR 30903
Enterococcus [14] = assay: Potency index, ratio of Vancomycin MIC to test compound MIC for antibacterial activity against Vancomycin-resistant Enterococci NR30909; format: functional, NR 30909
[15] = Induction of hemolysis in human erythrocytes incubated for 1 hr by microtiter plater reader analysis; format: toxicity, cell-based, Erythrocyte
Staphylococcus aureus [16] = assay: Potency index, ratio of Vancomycin MIC to test compound MIC for antibacterial activity against Vancomycin-resistant Staphylococcus aureus 12; format: functional
Enterococcus [17] = assay: Potency index, ratio of Vancomycin MIC to test compound MIC for antibacterial activity against Vancomycin-resistant Enterococci ATCC 51559; format: functional

| SMILES | MIC (Staphylococcus aureus [1]) | MIC (Enterococcus [2]) | MIC (Staphylococcus aureus [3]) | MIC (Enterococcus [4]) | MIC (Enterococcus [5]) | MIC (Enterococcus [6]) | MIC (Staphylococcus aureus [7]) | MIC (Staphylococcus aureus [8]) | Ratio (Enterococcus [9]) | Ratio (Staphylococcus aureus [10]) | Ratio (Staphylococcus aureus [11]) | hemolysis at 1 h, 250 µM [12] | Ratio (Enterococcus [13]) | Ratio (Enterococcus [14]) | HC50 at 1 h [15] | Ratio (Staphylococcus aureus [16]) | Ratio (Enterococcus [17]) |
| --- | --- | --- | --- | --- | --- | --- | --- | --- | --- | --- | --- | --- | --- | --- | --- | --- | --- |
| CN[C@H](CC(C)C)C(=O)N[C@H]1C(=O)N[C@@H](CC(N)=O)C(=O)N[C@H]2C(=O)N[C@H]3C(=O)N[C@H](C(=O)N[C@H](C(=O)O)c4cc(O)cc(O)c4-c4cc3ccc4O)[C@H](O)c3ccc(c(Cl)c3)Oc3cc2cc(c3O[C@@H]2O[C@H](CO)[C@@H](O)[C@H](O)[C@H]2O[C@H]2C[C@](C)(NCc3ccc(-c4ccc(Cl)cc4)cc3)[C@H](O)[C@H](C)O2)Oc2ccc(cc2Cl)[C@H]1O | 4.2 µM (≈ 6.93 µg/mL) | 4.2 µM (≈ 6.93 µg/mL) | 4.2 µM (≈ 6.93 µg/mL) | 4.2 µM (≈ 6.93 µg/mL) | 2.1 µM (≈ 3.46 µg/mL) | 4.2 µM (≈ 6.93 µg/mL) | 2.1 µM (≈ 3.46 µg/mL) | 0.5 µM (≈ 0.825 µg/mL) |  |  |  |  |  |  |  |  |  |
| CCCCCCCCNC(=O)C[N+](C)(C)CCCNC(=O)c1ccc(CN[C@@]2(C)C[C@H](O[C@H]3[C@H](Oc4c5cc6cc4Oc4ccc(cc4Cl)[C@@H](O)[C@@H](NC(=O)[C@@H](CC(C)C)NC)C(=O)N[C@@H](CC(N)=O)C(=O)N[C@H]6C(=O)N[C@H]4C(=O)N[C@H](C(=O)N[C@H](C(=O)O)c6cc(O)cc(O)c6-c6cc4ccc6O)[C@H](O)c4ccc(c(Cl)c4)O5)O[C@H](CO)[C@@H](O)[C@@H]3O)O[C@@H](C)[C@H]2O)cc1 | 1.8 µM | 0.9 µM | 3.7 µM | 14.7 µM | 14.7 µM | 0.9 µM | 3.7 µM | 0.4 µM | 750 | 750 | 750 | 1% | 750 | 750 | > 250 µM | 750 | 750 |
| CCCCCCCCCCNC(=O)c1ccc(CN[C@@]2(C)C[C@H](O[C@H]3[C@H](Oc4c5cc6cc4Oc4ccc(cc4Cl)[C@@H](O)[C@@H](NC(=O)[C@@H](CC(C)C)NC)C(=O)N[C@@H](CC(N)=O)C(=O)N[C@H]6C(=O)N[C@H]4C(=O)N[C@H](C(=O)N[C@H](C(=O)O)c6cc(O)cc(O)c6-c6cc4ccc6O)[C@H](O)c4ccc(c(Cl)c4)O5)O[C@H](CO)[C@@H](O)[C@@H]3O)O[C@@H](C)[C@H]2O)cc1 | 2 µM (≈ 3.45 µg/mL) | 2 µM (≈ 3.45 µg/mL) | 2 µM (≈ 3.45 µg/mL) | 2 µM (≈ 3.45 µg/mL) | 0.2 µM (≈ 0.345 µg/mL) | 2 µM (≈ 3.45 µg/mL) | 1 µM (≈ 1.72 µg/mL) | 2 µM (≈ 3.45 µg/mL) | 670 | 390 | 390 |  | 670 | 670 | 62.5 µM | 390 | 670 |
| CCCCCCCCCCCCCCNC(=O)c1ccc(CN[C@@]2(C)C[C@H](O[C@H]3[C@H](Oc4c5cc6cc4Oc4ccc(cc4Cl)[C@@H](O)[C@@H](NC(=O)[C@@H](CC(C)C)NC)C(=O)N[C@@H](CC(N)=O)C(=O)N[C@H]6C(=O)N[C@H]4C(=O)N[C@H](C(=O)N[C@H](C(=O)O)c6cc(O)cc(O)c6-c6cc4ccc6O)[C@H](O)c4ccc(c(Cl)c4)O5)O[C@H](CO)[C@@H](O)[C@@H]3O)O[C@@H](C)[C@H]2O)cc1 | 8 µM (≈ 14.2 µg/mL) | 4 µM (≈ 7.12 µg/mL) | 4 µM (≈ 7.12 µg/mL) | 4 µM (≈ 7.12 µg/mL) | 4 µM (≈ 7.12 µg/mL) | 2 µM (≈ 3.56 µg/mL) | 4 µM (≈ 7.12 µg/mL) | 4 µM (≈ 7.12 µg/mL) |  |  |  |  |  |  | 27.5 µM |  |  |
| CCCCCCCCCCNC(=O)C[N+](C)(C)CCCNC(=O)c1ccc(C)cc1 |  | > 40 µM |  | > 40 µM | > 40 µM | > 40 µM |  |  |  |  |  |  |  |  |  |  |  |
| CN[C@H](CC(C)C)C(=O)N[C@H]1C(=O)N[C@@H](CC(N)=O)C(=O)N[C@H]2C(=O)N[C@H]3C(=O)N[C@H](C(=O)N[C@H](C(=O)O)c4cc(O)cc(O)c4-c4cc3ccc4O)[C@H](O)c3ccc(c(Cl)c3)Oc3cc2cc(c3O[C@@H]2O[C@H](CO)[C@@H](O)[C@H](O)[C@H]2O[C@H]2C[C@](C)(NCc3ccc(C(=O)NCCC[N+](C)(C)Cc4cccc5ccccc45)cc3)[C@H](O)[C@H](C)O2)Oc2ccc(cc2Cl)[C@H]1O | 29.8 µM | 7.4 µM | 3.7 µM | > 30 µM | > 30 µM | 14.9 µM | 14.9 µM | 0.9 µM |  |  |  | 0% |  |  | > 250 µM |  |  |
| CN[C@H](CC(C)C)C(=O)N[C@H]1C(=O)N[C@@H](CC(N)=O)C(=O)N[C@H]2C(=O)N[C@H]3C(=O)N[C@H](C(=O)N[C@H](C(=O)O)c4cc(O)cc(O)c4-c4cc3ccc4O)[C@H](O)c3ccc(c(Cl)c3)Oc3cc2cc(c3O[C@@H]2O[C@H](CO)[C@@H](O)[C@H](O)[C@H]2O[C@H]2C[C@](C)(NCc3ccc(C(=O)NCCC[N+](C)(C)Cc4ccccc4)cc3)[C@H](O)[C@H](C)O2)Oc2ccc(cc2Cl)[C@H]1O | 30.5 µM | > 30 µM | 30.5 µM | > 30 µM | > 30 µM | > 30 µM | 30.5 µM | 0.9 µM |  |  |  | 0% |  |  | > 250 µM |  |  |
| CCCCCCCCCCCCCCNC(=O)C[N+](C)(C)CCCNC(=O)c1ccc(CN[C@@]2(C)C[C@H](O[C@H]3[C@H](Oc4c5cc6cc4Oc4ccc(cc4Cl)[C@@H](O)[C@@H](NC(=O)[C@@H](CC(C)C)NC)C(=O)N[C@@H](CC(N)=O)C(=O)N[C@H]6C(=O)N[C@H]4C(=O)N[C@H](C(=O)N[C@H](C(=O)O)c6cc(O)cc(O)c6-c6cc4ccc6O)[C@H](O)c4ccc(c(Cl)c4)O5)O[C@H](CO)[C@@H](O)[C@@H]3O)O[C@@H](C)[C@H]2O)cc1 | 1.8 µM | 0.9 µM | 1.8 µM | 1.8 µM | 1.8 µM | 0.9 µM | 1.8 µM | 1.8 µM | 780 | 780 | 780 |  | 780 | 780 | 35 µM | 780 | 780 |
| CCCCCCCCCCCCNC(=O)C[N+](C)(C)CCCNC(=O)c1ccc(CN[C@@]2(C)C[C@H](O[C@H]3[C@H](Oc4c5cc6cc4Oc4ccc(cc4Cl)[C@@H](O)[C@@H](NC(=O)[C@@H](CC(C)C)NC)C(=O)N[C@@H](CC(N)=O)C(=O)N[C@H]6C(=O)N[C@H]4C(=O)N[C@H](C(=O)N[C@H](C(=O)O)c6cc(O)cc(O)c6-c6cc4ccc6O)[C@H](O)c4ccc(c(Cl)c4)O5)O[C@H](CO)[C@@H](O)[C@@H]3O)O[C@@H](C)[C@H]2O)cc1 | 0.9 µM | 0.9 µM | 0.9 µM | 1.8 µM | 1.8 µM | 0.9 µM | 0.9 µM | 1.8 µM | 780 | 780 | 780 |  | 780 | 780 | 72 µM | 780 | 780 |
